Data taken from PMC4948833, “A Sensitive and Robust High-Throughput Screening Assay for Inhibitors of the Chikungunya Virus nsP1 Capping Enzyme” (PLoS ONE, 2016).

Columns and labels:
[1] = system: CHIKV nsP1 guanylation activity; assay: Guanylation assay, covalent nsP1-GTP-680 formation, SDS-PAGE fluorescence; details: for Average POC: mean of replicates; for Average POC / Percent of Control: 100 μM analog, Fig 4 data; for Percent of Control: single replicates, scaled guanylation; for ability to inhibit nsP1 guanylation (in words): 100 μM of each GTP analog, Fig 4; for ability to inhibit nsP1 guanylation (in words) / effect on nsP1 guanylation activity (in words): 1 hour; for effect on nsP1 guanylation activity (in words): 100 μM GTP, 100 μM SAM or both, Fig 2; for % of control, mean of replicates: mean of n = 3, 100 uM, given as fraction, Fig 2 data
CHIKV nsP1 = assay: HTS validation potency repeatability, EC50 of GTP analogs in two independent FP runs
[2] = system: CHIKV nsP1 GTP binding site; assay: FP competition assay, displacement of GTP-Bodipy by GTP and RNA cap analogs (apparent Ki / EC50); details: for affinity for nsP1 GTP binding site / ability to compete with GTP-Bodipy (in words): FP competition, compared with GTP; for Ki: read-out: Average Ki, apparent Ki, 500 nM nsP1, 10 nM GTP-Bodipy, 1 hour 25°C

O=c1ccn([C@@H]2O[C@H](COP(=O)(O)OP(=O)(O)OP(=O)(O)O)[C@@H](O)[C@H]2O)c(=O)[nH]1 [UTP]
Average POC [1]: 59.4237 | Percent of Control ([1]; 100 µM): 68.643 | Percent of Control ([1]; listed as UTP2, 100 µM): 52.4244 | Percent of Control ([1]; listed as UTP3, 100 µM): 57.2037 | Geometric Mean Potency (CHIKV nsP1; first set of rows): 4.3046 | Geometric Mean Potency (CHIKV nsP1; second set of rows): 4.272 | affinity for nsP1 GTP binding site / ability to compete with GTP-Bodipy (in words) [2]: markedly decreased ability to outcompete GTP-Bodipy | Ki [2]: 4.46 µM

Nc1nc2c(ncn2[C@H]2C[C@H](O)[C@@H](COP(=O)(O)OP(=O)(O)OP(=O)(O)O)O2)c(=O)[nH]1 [dGTP]
ability to inhibit nsP1 guanylation (in words) [1]: greatest ability to in inhibit nsP1 guanylation activity | Average POC [1]: 25.7895 | Percent of Control ([1]; 100 µM): 29.9486 | Percent of Control ([1]; listed as dGTP2, 100 µM): 23.146 | Percent of Control ([1]; listed as dGTP3, 100 µM): 24.2738 | Geometric Mean Potency (CHIKV nsP1; first set of rows): 5.4125 | Geometric Mean Potency (CHIKV nsP1; second set of rows): 5.208 | affinity for nsP1 GTP binding site / ability to compete with GTP-Bodipy (in words) [2]: less affinity compared to the others | Ki [2]: 4.21 µM

Nc1nc2c(ncn2[C@@H]2O[C@H](CO)[C@@H](O)[C@H]2O)c(=O)[nH]1 [Guanosine]
ability to inhibit nsP1 guanylation (in words) [1]: least ability to inhibit guanylation | Average POC [1]: 109.076 | Percent of Control ([1]; 100 µM): 100.679 | Percent of Control ([1]; listed as Guanosine2, 100 µM): 132.685 | Percent of Control ([1]; listed as Guanosine3, 100 µM): 93.8632 | affinity for nsP1 GTP binding site / ability to compete with GTP-Bodipy (in words) [2]: not able to calculate a Ki

Nc1nc2c(ncn2[C@@H]2O[C@H](COP(=O)(O)O)[C@@H](O)[C@H]2O)c(=O)[nH]1 [GMP]
ability to inhibit nsP1 guanylation (in words) [1]: least ability to inhibit guanylation | Average POC [1]: 99.8208 | Percent of Control ([1]; 100 µM): 96.3413 | Percent of Control ([1]; listed as GMP2, 100 µM): 112.788 | Percent of Control ([1]; listed as GMP3, 100 µM): 90.3332 | Geometric Mean Potency (CHIKV nsP1; first set of rows): 3.81 | Geometric Mean Potency (CHIKV nsP1; second set of rows): 3.81 | affinity for nsP1 GTP binding site / ability to compete with GTP-Bodipy (in words) [2]: decrease of GMP affinity was quite large | Ki [2]: 133 µM

Cn1c[n+]([C@@H]2O[C@H](COP(=O)([O-])OP(=O)(O)OP(=O)(O)O)[C@@H](O)[C@H]2O)c2nc(N)[nH]c(=O)c21 [me^7-GTP]
Average POC [1]: 37.4013 | Percent of Control ([1]; listed as m7-GTP2, 100 µM): 37.3024 | Percent of Control ([1]; listed as m7-GTP, 100 µM): 37.5003 | affinity for nsP1 GTP binding site / ability to compete with GTP-Bodipy (in words) [2]: able to compete for the GTP binding site | Ki [2]: 1.55 µM

O=c1[nH]c(=O)c2ncn([C@@H]3O[C@H](COP(=O)(O)OP(=O)(O)OP(=O)(O)O)[C@@H](O)[C@H]3O)c2[nH]1 [XTP]
ability to inhibit nsP1 guanylation (in words) [1]: greatest ability to in inhibit nsP1 guanylation activity | Average POC [1]: 32.3662 | Percent of Control ([1]; 100 µM): 34.0129 | Percent of Control ([1]; listed as XTP2, 100 µM): 27.443 | Percent of Control ([1]; listed as XTP3, 100 µM): 35.6426 | Geometric Mean Potency (CHIKV nsP1; first set of rows): 5.251 | Geometric Mean Potency (CHIKV nsP1; second set of rows): 5.346 | affinity for nsP1 GTP binding site / ability to compete with GTP-Bodipy (in words) [2]: slightly higher affinity compared to GTP | Ki [2]: 0.402 µM

Nc1nc2c(ncn2[C@@H]2O[C@H](COP(=O)(O)OP(=O)(O)O)[C@@H](O)[C@H]2O)c(=O)[nH]1 [GDP]
Average POC [1]: 78.8606 | Percent of Control ([1]; 100 µM): 63.0295 | Percent of Control ([1]; listed as GDP2, 100 µM): 85.6756 | Percent of Control ([1]; listed as GDP3, 100 µM): 87.8767 | Geometric Mean Potency (CHIKV nsP1; first set of rows): 4.329 | Geometric Mean Potency (CHIKV nsP1; second set of rows): 4.21 | affinity for nsP1 GTP binding site / ability to compete with GTP-Bodipy (in words) [2]: slight decrease in affinity | Ki [2]: 4.89 µM

Nc1ccn([C@@H]2O[C@H](COP(=O)(O)OP(=O)(O)OP(=O)(O)O)[C@@H](O)[C@H]2O)c(=O)n1 [CTP]
Average POC [1]: 49.6579 | Percent of Control ([1]; 100 µM): 48.7482 | Percent of Control ([1]; listed as CTP2, 100 µM): 53.2419 | Percent of Control ([1]; listed as CTP3, 100 µM): 46.9836 | Geometric Mean Potency (CHIKV nsP1; first set of rows): 4.146 | Geometric Mean Potency (CHIKV nsP1; second set of rows): 4.036 | affinity for nsP1 GTP binding site / ability to compete with GTP-Bodipy (in words) [2]: markedly decreased ability to outcompete GTP-Bodipy | Ki [2]: 6.94 µM

Nc1nc2c(ncn2[C@@H]2O[C@H](COP(=O)(O)OP(=O)(O)OP(=O)(O)OC[C@H]3O[C@@H](n4cnc5c(N)ncnc54)[C@H](O)[C@@H]3O)[C@@H](O)[C@H]2O)c(=O)[nH]1 [GpppA]
Average POC [1]: 66.8805 | Percent of Control ([1]; 100 µM): 57.9814 | Percent of Control ([1]; listed as GpppA2, 100 µM): 71.1847 | Percent of Control ([1]; listed as GpppA3, 100 µM): 71.4754 | Geometric Mean Potency (CHIKV nsP1; first set of rows): 4.749 | Geometric Mean Potency (CHIKV nsP1; second set of rows): 4.683 | affinity for nsP1 GTP binding site / ability to compete with GTP-Bodipy (in words) [2]: better competitor than me^7GpppA | Ki [2]: 1.89 µM

Nc1nc2c(ncn2[C@@H]2O[C@H](COP(=O)(O)OP(=O)(O)OP(=O)(O)O)[C@@H](O)[C@H]2O)c(=O)[nH]1 [GTP]
effect on nsP1 guanylation activity (in words) [1]: significantly diminished guanylation activity | ability to inhibit nsP1 guanylation (in words) [1]: greatest ability to in inhibit nsP1 guanylation activity | % of control, mean of replicates [1]: 0.417 | Average POC [1]: 44.8021 | Percent of Control ([1]; 100 µM): 42.0576 | Percent of Control ([1]; listed as GTP2, 100 µM): 51.0432 | Percent of Control ([1]; listed as GTP3, 100 µM): 41.3055 | Geometric Mean Potency (CHIKV nsP1; first set of rows): 5.173 | Geometric Mean Potency (CHIKV nsP1; second set of rows): 5.17 | Ki [2]: 0.546 µM | EC50 ([2]; read-out: EC50 concentration of GTP, FP displacement of GTP-Bodipy, used for midpoint signal wells): 6.8 µM

Cn1c[n+]([C@@H]2O[C@H](COP(=O)(O)O)[C@@H](O)[C@H]2O)c2nc(N)[nH]c(=O)c21 [me^7-GMP]
ability to inhibit nsP1 guanylation (in words) [1]: least ability to inhibit guanylation | Average POC [1]: 102.357 | Percent of Control ([1]; listed as m7-GMP2, 100 µM): 87.9178 | Percent of Control ([1]; listed as m7-GMP3, 100 µM): 97.473 | Percent of Control ([1]; listed as m7-GMP, 100 µM): 121.679 | affinity for nsP1 GTP binding site / ability to compete with GTP-Bodipy (in words) [2]: very poor competitor | Ki [2]: 21.9 µM

Nc1nc2c(ncn2[C@H]2CC[C@@H](COP(=O)(O)OP(=O)(O)OP(=O)(O)O)O2)c(=O)[nH]1 [ddGTP]
ability to inhibit nsP1 guanylation (in words) [1]: greatest ability to in inhibit nsP1 guanylation activity | Average POC [1]: 32.7576 | Percent of Control ([1]; 100 µM): 32.7691 | Percent of Control ([1]; listed as ddGTP2, 100 µM): 30.4919 | Percent of Control ([1]; listed as ddGTP3, 100 µM): 35.0118 | affinity for nsP1 GTP binding site / ability to compete with GTP-Bodipy (in words) [2]: binding slightly better than the others | Ki [2]: 0.425 µM

C[S+](CC[C@H](N)C(=O)[O-])C[C@H]1O[C@@H](n2cnc3c(N)ncnc32)[C@H](O)[C@@H]1O (stereo partly shown) [SAM, S-adenosyl methionine]
effect on nsP1 guanylation activity (in words) [1]: guanylation activity was maintained | % of control, mean of replicates [1]: 0.9908
